Results taken from PubChem BioAssay (NCI).
Several values for one entry are separate records, joined by “and”; a condition that tells them apart may be missing. Identical values can stand only once.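 Assay format: 96-well plates, 48-hour exposure. GI50 marks 50% less growth. TGI is the concentration that stops growth completely.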

Columns and labels:
Test in all cases: growth of human tumour cells (NCI), 48 h
M14 melanoma = system: M14 melanoma
COLO 205 colon = system: COLO 205 colon
UACC-257 melanoma = system: UACC-257 melanoma
IGROV1 ovarian = system: IGROV1 ovarian
786-0 renal = system: 786-0 renal
NCI-H460 lung = system: NCI-H460 lung
SK-MEL-28 melanoma = system: SK-MEL-28 melanoma
UO-31 renal = system: UO-31 renal
RPMI-8226 leukemia = system: RPMI-8226 leukemia
HL-60(TB) leukemia = system: HL-60(TB) leukemia

## CCC(c1cccc(O)c1)C(CC)c1cccc(O)c1 (stereo not drawn)
M14 melanoma
  GI50: 2.93 µM
  TGI: 13.2 µM
COLO 205 colon
  GI50: 2.05 µM
  TGI: 5.41 µM
UACC-257 melanoma
  GI50: 11.5 µM
  TGI: 26.4 µM
IGROV1 ovarian
  GI50: 10.8 µM
  TGI: 25.3 µM
786-0 renal
  GI50: 5.68 µM
  TGI: 18.3 µM
NCI-H460 lung
  GI50: 2.98 µM
  TGI: 12.8 µM
SK-MEL-28 melanoma
  GI50: 4.9 µM
  TGI: 18.2 µM
UO-31 renal
  GI50: 4.23 µM
  TGI: 17.8 µM
RPMI-8226 leukemia
  GI50: 2.05 µM
  TGI: 7.73 µM

## CN[C@@H]1C[C@H]2O[C@@](C)([C@@H]1OC)n1c3ccccc3c3c4c(c5c6ccccc6n2c5c31)C(=O)N[C@@H]4O
M14 melanoma
  GI50: 0.0311 µM
  TGI: 0.3 µM and 1.25 µM
COLO 205 colon
  TGI: 0.691 µM
UACC-257 melanoma
  GI50: 0.0848 µM
  TGI: 0.3 µM and 1.9 µM
IGROV1 ovarian
  GI50: 0.0129 µM and 0.0461 µM
  TGI: 0.0617 µM and 0.341 µM
786-0 renal
  TGI: 0.172 µM
NCI-H460 lung
  TGI: 0.3 µM and 1.47 µM
SK-MEL-28 melanoma
  TGI: 2.31 µM
UO-31 renal
  TGI: 0.0645 µM
RPMI-8226 leukemia
  GI50: 0.0419 µM

## CC(=O)O[C@@H]1C2C(=O)OC(=O)C2C2CCC[C@]23O[C@H]13 (stereo partly drawn)
M14 melanoma
  TGI: > 100 µM
COLO 205 colon
  TGI: > 100 µM
UACC-257 melanoma
  TGI: > 100 µM
IGROV1 ovarian
  TGI: > 100 µM
786-0 renal
  TGI: > 100 µM
NCI-H460 lung
  TGI: > 100 µM
HL-60(TB) leukemia
  TGI: > 100 µM
SK-MEL-28 melanoma
  TGI: > 100 µM
UO-31 renal
  TGI: > 100 µM
RPMI-8226 leukemia
  TGI: > 100 µM

## COc1cc(Br)c(C=Nc2cccc3ccc(OS(=O)(=O)c4cccc([N+](=O)[O-])c4)cc23)cc1OC
COLO 205 colon
  TGI: > 100 µM
UACC-257 melanoma
  TGI: > 100 µM
IGROV1 ovarian
  TGI: > 100 µM
786-0 renal
  TGI: > 100 µM
NCI-H460 lung
  TGI: > 100 µM
SK-MEL-28 melanoma
  TGI: > 100 µM
UO-31 renal
  TGI: > 100 µM
RPMI-8226 leukemia
  TGI: > 100 µM

## COc1ccc2c(c1)[n+]([O-])c(/C(C)=N/NC(=O)CC#N)c[n+]2[O-]
M14 melanoma
  TGI: > 100 µM
COLO 205 colon
  TGI: > 100 µM
UACC-257 melanoma
  TGI: > 100 µM
IGROV1 ovarian
  TGI: > 100 µM
786-0 renal
  TGI: > 100 µM
NCI-H460 lung
  TGI: > 100 µM
HL-60(TB) leukemia
  TGI: > 100 µM
SK-MEL-28 melanoma
  TGI: > 100 µM
UO-31 renal
  TGI: > 100 µM
RPMI-8226 leukemia
  TGI: > 100 µM

## Oc1ccccc1-c1nc2c3ccccc3c3ccccc3c2[nH]1
M14 melanoma
  GI50: 11.7 µM
  TGI: 24 µM
COLO 205 colon
  GI50: 10.8 µM
  TGI: 22.7 µM
UACC-257 melanoma
  GI50: 14.1 µM
  TGI: 27.1 µM
IGROV1 ovarian
  GI50: 0.0614 µM
  TGI: 14.4 µM
786-0 renal
  GI50: 4.67 µM
  TGI: 13.6 µM
NCI-H460 lung
  GI50: 3.39 µM
  TGI: 12.1 µM
HL-60(TB) leukemia
  GI50: 3.66 µM
  TGI: 14.9 µM
SK-MEL-28 melanoma
  GI50: 14.4 µM
  TGI: 27.4 µM
UO-31 renal
  GI50: 2.28 µM
  TGI: 14.6 µM
RPMI-8226 leukemia
  GI50: 1.93 µM
  TGI: 14.4 µM

## Nc1ccc(S(=O)(=O)NCc2nccs2)cc1
M14 melanoma
  TGI: 37.2 µM
COLO 205 colon
  TGI: 32.7 µM
UACC-257 melanoma
  TGI: 44.5 µM
IGROV1 ovarian
  TGI: 56.8 µM
786-0 renal
  TGI: 77.3 µM
NCI-H460 lung
  TGI: > 100 µM
HL-60(TB) leukemia
  TGI: 44 µM
SK-MEL-28 melanoma
  TGI: 51.2 µM
UO-31 renal
  TGI: 55.1 µM
RPMI-8226 leukemia
  TGI: 56.1 µM

## c1cc(CNC2C3CCC(C3)C2c2c[nH]c3ccccc23)cc(CNC2C3CCC(C3)C2c2c[nH]c3ccccc23)c1 (stereo not drawn)
M14 melanoma
  TGI: 5.3 µM
COLO 205 colon
  GI50: 1.54 µM
  TGI: 3.03 µM
UACC-257 melanoma
  GI50: 2 µM
  TGI: 3.82 µM
IGROV1 ovarian
  TGI: 2.69 µM
786-0 renal
  GI50: 14.2 µM
  TGI: 27.3 µM
NCI-H460 lung
  GI50: 0.313 µM
  TGI: > 100 µM
HL-60(TB) leukemia
  GI50: 1.6 µM
  TGI: 4.21 µM
SK-MEL-28 melanoma
  GI50: 1.01 µM and 0.343 µM
  TGI: 2.3 µM and 1.51 µM
RPMI-8226 leukemia
  TGI: > 100 µM

## CNC(=S)N/N=C/c1ccc([N+](=O)[O-])s1
M14 melanoma
  TGI: > 10 µM
COLO 205 colon
  TGI: 8.55 µM
UACC-257 melanoma
  TGI: > 10 µM
IGROV1 ovarian
  TGI: > 10 µM
786-0 renal
  TGI: > 10 µM
NCI-H460 lung
  TGI: > 10 µM
HL-60(TB) leukemia
  TGI: > 10 µM
SK-MEL-28 melanoma
  TGI: > 10 µM
UO-31 renal
  TGI: > 10 µM
RPMI-8226 leukemia
  TGI: > 10 µM

## Cc1c2ccc(N(C)c3ccnc(Nc4cccc(S(N)(=O)=O)c4)n3)cc2nn1C
M14 melanoma
  GI50: 9.73 µM
  TGI: > 25 µM
COLO 205 colon
  GI50: 12.5 µM
  TGI: > 25 µM
UACC-257 melanoma
  GI50: 12.2 µM
  TGI: > 25 µM
IGROV1 ovarian
  GI50: 10.1 µM
  TGI: > 25 µM
786-0 renal
  GI50: 13.2 µM
  TGI: > 25 µM
NCI-H460 lung
  GI50: 7.23 µM
  TGI: > 25 µM
HL-60(TB) leukemia
  GI50: 8.44 µM
  TGI: > 19.1 µM
SK-MEL-28 melanoma
  GI50: 9.95 µM
  TGI: > 25 µM
UO-31 renal
  GI50: 5.96 µM
  TGI: > 23.1 µM
RPMI-8226 leukemia
  GI50: 13.6 µM
  TGI: > 25 µM

## CC(C)Oc1cc(O)c2c(c1)OCC=C2CCC(=O)O
M14 melanoma
  TGI: 98.6 µM
COLO 205 colon
  TGI: 31.2 µM
UACC-257 melanoma
  TGI: 61.4 µM
IGROV1 ovarian
  TGI: > 100 µM
786-0 renal
  TGI: > 100 µM
NCI-H460 lung
  TGI: > 100 µM
HL-60(TB) leukemia
  TGI: 42 µM
SK-MEL-28 melanoma
  TGI: > 100 µM
UO-31 renal
  TGI: 89.1 µM
RPMI-8226 leukemia
  TGI: 69.3 µM

## CCN(CC)CCNc1n[n+]([O-])c2ccccc2[n+]1[O-]
M14 melanoma
  TGI: 21 µM and 28.7 µM
COLO 205 colon
  TGI: 19.9 µM and 26 µM
UACC-257 melanoma
  GI50: 8.39 µM and 3.54 µM
  TGI: 18.3 µM and 20.4 µM
IGROV1 ovarian
  TGI: 10.3 µM and 17 µM
786-0 renal
  TGI: 64.5 µM and 21 µM
NCI-H460 lung
  GI50: 3.94 µM and 1.54 µM
  TGI: 38.4 µM and 12.6 µM
HL-60(TB) leukemia
  TGI: 7.61 µM and 8.95 µM
SK-MEL-28 melanoma
  TGI: > 100 µM
UO-31 renal
  TGI: > 79.4 µM and 57.1 µM
RPMI-8226 leukemia
  TGI: 18.9 µM and 20.5 µM

## COC(=O)C1=C(C(=O)OC)SC(=C(Cl)C(=S)Sc2ccccc2N)S1
M14 melanoma
  GI50: 7.35 µM
  TGI: 30.3 µM
COLO 205 colon
  GI50: 34.8 µM
  TGI: > 100 µM
UACC-257 melanoma
  GI50: 20.3 µM
  TGI: 55.7 µM
786-0 renal
  GI50: 16.9 µM
  TGI: 36.1 µM
NCI-H460 lung
  GI50: 19.6 µM
  TGI: 35.5 µM
HL-60(TB) leukemia
  GI50: > 100 µM
  TGI: > 100 µM
SK-MEL-28 melanoma
  GI50: > 100 µM
  TGI: > 100 µM
UO-31 renal
  GI50: 27 µM
  TGI: > 100 µM
RPMI-8226 leukemia
  GI50: 51.8 µM
  TGI: > 100 µM

## CCOc1c(Cl)cc(CNC(C)C(O)c2ccccc2)cc1OC (stereo not drawn)
COLO 205 colon
  GI50: 19 µM
  TGI: 35.9 µM
UACC-257 melanoma
  GI50: 19.1 µM
  TGI: 43.1 µM
IGROV1 ovarian
  GI50: 70.6 µM
  TGI: > 100 µM
786-0 renal
  GI50: 16.1 µM
  TGI: 38.9 µM
NCI-H460 lung
  GI50: 18.3 µM
  TGI: 35.9 µM
HL-60(TB) leukemia
  GI50: 21.1 µM
  TGI: 46.1 µM
SK-MEL-28 melanoma
  GI50: 15.3 µM
  TGI: 30.8 µM
UO-31 renal
  GI50: 18 µM
  TGI: 89.6 µM
RPMI-8226 leukemia
  GI50: 25.5 µM
  TGI: 57.7 µM

## COC(=O)C1=C(CS(=O)c2ccccc2[N+](=O)[O-])ON(C)C1c1ccccc1 (stereo not drawn)
M14 melanoma
  TGI: > 100 µM
COLO 205 colon
  TGI: > 100 µM
UACC-257 melanoma
  TGI: > 100 µM
IGROV1 ovarian
  TGI: > 100 µM
786-0 renal
  TGI: > 100 µM
NCI-H460 lung
  TGI: > 100 µM
HL-60(TB) leukemia
  TGI: 38.6 µM
UO-31 renal
  TGI: > 100 µM
RPMI-8226 leukemia
  TGI: > 100 µM

## O=[N+]([O-])c1ccc2c(c1)[O][Sn]([I])([I])[O]2
M14 melanoma
  GI50: > 100 µM
  TGI: > 100 µM
UACC-257 melanoma
  GI50: > 100 µM
  TGI: > 100 µM
IGROV1 ovarian
  GI50: > 100 µM
  TGI: > 100 µM
786-0 renal
  GI50: > 100 µM
  TGI: > 100 µM
NCI-H460 lung
  GI50: > 100 µM
  TGI: > 100 µM
HL-60(TB) leukemia
  GI50: > 100 µM
  TGI: > 100 µM
SK-MEL-28 melanoma
  GI50: 69.6 µM
  TGI: > 100 µM
UO-31 renal
  GI50: > 100 µM
  TGI: > 100 µM
RPMI-8226 leukemia
  GI50: 44.6 µM
  TGI: > 100 µM
